Here are results for 3 compounds from patent US7157479B2, “Oxazol/thiazol-derivatives activators of the hPPAR-alpha receptor” (Glaxo Group Limited, priority 2001, dated 2007).

One data set has as its target T1, hPPAR gamma (Homo sapiens, UniProt P37231).
T1 construct: expressed in transfected cells; host or cells: CV-1 cells
T1 sequence (P37231 238-503 limits assumed): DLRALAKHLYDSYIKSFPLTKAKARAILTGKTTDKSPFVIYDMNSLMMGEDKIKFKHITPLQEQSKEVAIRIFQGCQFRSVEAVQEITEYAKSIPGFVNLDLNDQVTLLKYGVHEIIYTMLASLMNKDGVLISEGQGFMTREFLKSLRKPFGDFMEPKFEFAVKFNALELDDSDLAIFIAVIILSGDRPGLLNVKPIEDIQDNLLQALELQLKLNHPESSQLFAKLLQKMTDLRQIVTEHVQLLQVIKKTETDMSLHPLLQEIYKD
Description: Transient transfection (transactivation) assay in CV-1 cells, hPPAR gamma. Format: cell-based. The note with it: GAL4 chimera, SPAP reporter, read-out: EC50 nM HPPARy. From the text: (§1) Compounds were screened for functional potency in transient transfection assays in CV-1 cells for their ability to activate the PPAR subtypes (transactivation assay). A previously established chimeric receptor system was utilized to allow comparison of the relative transcriptional activity of the receptor subtypes on the same target gene and to prevent endogenous receptor activation from complicating the interpretation of results. See, for example, Lehmann, J. M.; Moore, L. B.; Smith-Oliver, T. A.; Wilkison, W. O.; Willson, T. M.; Kliewer, S. A., An antidiabetic thiazolidinedione is a high affinity ligand for peroxisome proliferator-activated receptor gamma (PPARgamma), J. Biol. Chem., 1995, 270, 12953–6. The ligand binding domains for murine and human PPAR alpha, PPAR gamma, and PPAR delta were each fused to the yeast transcription factor GAL4 DNA binding domain. CV-1 cells were transiently transfected with expression vectors for the respective PPAR chimera along with0 a reporter construct containing five copies of the GAL4 DNA binding site driving expression of secreted placental alkaline phosphatase (SPAP) and β-galactosidase. After 16 h, the medium was exchanged to DME medium supplemented with 10% delipidated fetal calf serum and the test compound at the appropriate concentration. […]

A further data set deals with T2, hPPAR alpha (Homo sapiens, UniProt Q07869).
T2 construct: expressed in transfected cells; host or cells: CV-1 cells
T2 sequence (Q07869 239-466 limits assumed): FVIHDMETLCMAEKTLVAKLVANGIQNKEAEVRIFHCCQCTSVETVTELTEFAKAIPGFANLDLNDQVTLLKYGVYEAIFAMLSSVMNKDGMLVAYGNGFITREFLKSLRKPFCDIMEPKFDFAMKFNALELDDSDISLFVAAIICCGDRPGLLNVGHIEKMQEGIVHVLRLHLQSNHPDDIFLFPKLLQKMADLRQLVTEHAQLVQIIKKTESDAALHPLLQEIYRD
Nature of the data set: Transient transfection (transactivation) assay in CV-1 cells, hPPAR alpha. The note with it: GAL4 chimera, SPAP reporter, read-out: EC50 nM HPPARα. Format: cell-based.
Description: as §1

In another data set the target is T3, hPPAR delta (Homo sapiens, UniProt Q03181).
T3 construct: expressed in transfected cells; host or cells: CV-1 cells
T3 sequence (Q03181 211-439 limits assumed): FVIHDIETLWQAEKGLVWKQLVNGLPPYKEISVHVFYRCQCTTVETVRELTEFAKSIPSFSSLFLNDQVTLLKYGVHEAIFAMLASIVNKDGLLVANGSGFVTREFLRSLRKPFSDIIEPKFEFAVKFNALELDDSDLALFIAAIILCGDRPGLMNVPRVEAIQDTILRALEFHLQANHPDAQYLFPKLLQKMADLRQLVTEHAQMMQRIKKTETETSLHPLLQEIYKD
Description: Transient transfection (transactivation) assay in CV-1 cells, hPPAR delta. Format: cell-based. To be noted: GAL4 chimera, SPAP reporter, read-out: EC50 nM HPPARδ.
Description: as §1

On to `Cc1nc(C(=O)NCc2ccc(OC(C)(C)C(=O)O)cc2)sc1-c1ccc(F)cc1` [Example 4, 2-methyl-2-[4-{[(4-methyl-5-[4-fluorophenyl]thiazol-2-ylcarbonyl)amino]methyl}phenoxy]propionic Acid], for which the melting point turned out to be 122 °C. In addition, at hPPAR gamma, the EC50 came out at 5880 nM. Besides, the EC50 on hPPAR alpha was 61 nM. Also, the EC50 on hPPAR delta is 10000 nM.

For the compound `CCc1ccc(-c2sc(C(=O)NCc3ccc(OC(C)(C)C(=O)O)cc3)nc2C)cc1` [Example 2, 2-methyl-2–[4-{[(4-methyl-5-[4-ethylphenyl]thiazol-2-ylcarbonyl)amino]methyl}phenoxy]propionic Acid], the EC50 at hPPAR gamma amounted to 700 nM; at hPPAR alpha, 5 nM; at hPPAR delta it was 8740 nM.

In turn, `CCOC(=O)C(C)(C)Oc1ccc(CNC(=O)c2nc(C)c(-c3ccc(F)cc3)s2)cc1` [Example 3, 2-methyl-2-[4-{[(4-methyl-5-[4-fluorophenyl]thiazol-2-ylcarbonyl)amino]methyl}phenoxy]propionic Acid Ethyl Ester] came in with a melting point of 97 °C.
